Laboratory results from the supplement of paper PMC10307832.

What was measured:
Experiment in all cases: relative viability (nuclei count vs DMSO), 5 days (fraction); higher = more cells survive
Axitinib + OSI-027 = compound: CNC(=O)c1ccccc1Sc1ccc2c(/C=C/c3ccccn3)n[nH]c2c1 [Axitinib] + COc1cccc2cc(-c3nc([C@H]4CC[C@H](C(=O)O)CC4)n4ncnc(N)c34)[nH]c12 [OSI-027] (partner 0.5 µM)
Summary of the method: (§1)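 Dosing by pin tool came one day after lung cancer cell lines were seeded in 1536-well plates, using either one drug or a fixed anchor-drug dose plus five library-drug doses (not always all listed) in √10 steps. After 5 days, nuclei were counted on 4× images. Relative viability is treated-well nuclei count divided by vehicle-well nuclei count, and values are medians of duplicate plates.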

Bemcentinib + Pictilisib = compound: Nc1nc(Nc2ccc3c(c2)CC[C@@H](N2CCCC2)CC3)nn1-c1cc2c(nn1)-c1ccccc1CCC2 [Bemcentinib] + CS(=O)(=O)N1CCN(Cc2cc3nc(-c4cccc5[nH]ncc45)nc(N4CCOCC4)c3s2)CC1 [Pictilisib] (partner 1 µM)
Summary of the method: as §1

Axitinib + Olaparib = compound: CNC(=O)c1ccccc1Sc1ccc2c(/C=C/c3ccccn3)n[nH]c2c1 [Axitinib] + O=C(c1cc(Cc2n[nH]c(=O)c3ccccc23)ccc1F)N1CCN(C(=O)C2CC2)CC1 [Olaparib] (partner 8 µM)
Summary of the method: as §1

Bemcentinib + Olaparib = compound: Nc1nc(Nc2ccc3c(c2)CC[C@@H](N2CCCC2)CC3)nn1-c1cc2c(nn1)-c1ccccc1CCC2 [Bemcentinib] + O=C(c1cc(Cc2n[nH]c(=O)c3ccccc23)ccc1F)N1CCN(C(=O)C2CC2)CC1 [Olaparib] (partner 8 µM)
Summary of the method: as §1

| Cell Line | relative viability (Axitinib + OSI-027; first compound 0.005 µM) | relative viability (Axitinib + OSI-027; first compound 0.01581 µM) | relative viability (Axitinib + OSI-027; first compound 0.05 µM) | relative viability (Axitinib + OSI-027; first compound 0.1581 µM) | relative viability (Axitinib + OSI-027; first compound 0.5 µM) | relative viability (Bemcentinib + Pictilisib; first compound 0.04 µM) | relative viability (Bemcentinib + Pictilisib; first compound 0.1265 µM) | relative viability (Bemcentinib + Pictilisib; first compound 0.4 µM) | relative viability (Bemcentinib + Pictilisib; first compound 1.265 µM) | relative viability (Bemcentinib + Pictilisib; first compound 4 µM) | relative viability (Axitinib + Olaparib; first compound 0.005 µM) | relative viability (Axitinib + Olaparib; first compound 0.01581 µM) | relative viability (Axitinib + Olaparib; first compound 0.05 µM) | relative viability (Axitinib + Olaparib; first compound 0.1581 µM) | relative viability (Axitinib + Olaparib; first compound 0.5 µM) | relative viability (Bemcentinib + Olaparib; first compound 0.04 µM) | relative viability (Bemcentinib + Olaparib; first compound 0.1265 µM) | relative viability (Bemcentinib + Olaparib; first compound 0.4 µM) | relative viability (Bemcentinib + Olaparib; first compound 1.265 µM) | relative viability (Bemcentinib + Olaparib; first compound 4 µM) |
| --- | --- | --- | --- | --- | --- | --- | --- | --- | --- | --- | --- | --- | --- | --- | --- | --- | --- | --- | --- | --- |
| NCI-H1563 | 0.708 | 0.705 | 0.742 | 0.705 | 0.704 | 0.634 | 0.629 | 0.635 | 0.655 | 0.626 |  |  |  |  |  |  |  |  |  |  |
| EMC-BAC-2 | 0.409 | 0.374 | 0.359 | 0.426 | 0.409 | 0.544 | 0.561 | 0.529 | 0.548 | 0.569 | 0.5 | 0.542 | 0.516 | 0.512 | 0.508 | 0.491 | 0.511 | 0.488 | 0.468 | 0.482 |
| NCI-H596 | 0.893 | 0.649 | 0.855 | 0.797 | 0.556 | 0.374 | 0.443 | 0.379 | 0.421 | 0.403 | 0.739 | 0.663 | 0.739 | 0.719 | 0.705 | 0.605 | 0.749 | 0.759 | 0.613 | 0.773 |
| NCI-H2009 | 0.699 | 0.684 | 0.646 | 0.697 | 0.887 | 0.753 | 0.928 | 0.855 | 0.914 | 0.888 | 0.724 | 0.686 | 0.698 | 0.722 | 0.819 | 0.651 | 0.778 | 0.734 | 0.698 | 0.697 |
| HOP-62 | 0.825 | 0.865 | 0.814 | 0.872 | 0.923 | 0.661 | 0.82 |  | 0.712 | 0.92 | 0.392 | 0.443 | 0.321 | 0.569 | 0.682 | 0.342 | 0.621 | 0.575 | 0.528 | 0.472 |
| NCI-H2126 | 0.685 | 0.766 | 0.733 | 0.643 | 0.667 | 0.475 | 0.483 | 0.531 | 0.485 | 0.485 | 0.913 | 0.907 | 0.884 | 0.917 | 0.944 | 0.999 | 0.931 | 0.948 | 1.01 | 0.916 |
| HCC-15 | 0.725 | 0.679 | 0.689 | 0.65 | 0.623 | 0.747 | 0.767 | 0.822 | 0.738 | 0.781 | 0.77 | 0.75 | 0.766 | 0.682 | 0.667 | 0.7 | 0.712 | 0.771 | 0.655 | 0.748 |
| NCI-H23 | 0.66 | 0.568 | 0.617 | 0.652 | 0.699 | 0.443 | 0.503 | 0.541 | 0.453 | 0.476 | 0.284 | 0.331 | 0.334 | 0.285 | 0.312 | 0.246 | 0.338 | 0.381 | 0.308 | 0.298 |
| LCLC-97TM1 | 0.589 | 0.51 | 0.427 | 0.48 | 0.475 | 0.16 | 0.183 |  | 0.237 | 0.249 | 0.433 | 0.436 | 0.446 | 0.37 | 0.496 | 0.411 | 0.455 | 0.476 | 0.289 | 0.382 |
| SW 1573 | 0.592 | 0.592 | 0.68 | 0.508 | 0.724 | 0.409 | 0.532 | 0.618 | 0.488 | 0.494 | 0.502 | 0.595 | 0.55 | 0.417 | 0.507 | 0.504 | 0.437 | 0.558 | 0.465 | 0.438 |
| EKVX | 0.708 | 0.708 | 0.746 | 0.737 | 0.69 | 0.404 | 0.474 | 0.503 | 0.436 | 0.451 | 0.979 | 0.826 | 0.902 | 0.883 | 1.03 | 0.88 | 0.852 | 0.829 | 1.09 | 0.939 |
| HCC-44 | 0.451 | 0.439 | 0.404 | 0.605 | 0.614 | 0.698 | 0.618 | 0.599 | 0.625 | 0.651 | 0.955 | 0.961 | 0.963 | 0.947 | 1 | 1.04 | 1.04 | 0.981 | 0.974 | 1.02 |
| NCI-H1651 | 0.73 | 0.683 | 0.725 | 0.601 | 0.674 | 0.622 | 0.678 | 0.64 | 0.451 | 0.739 | 0.194 | 0.19 | 0.198 | 0.175 | 0.206 | 0.201 | 0.204 | 0.187 | 0.189 | 0.191 |
| COR-L23 | 0.88 | 0.775 | 0.804 | 0.75 | 1.19 | 0.843 | 0.978 | 1.03 | 0.953 | 0.927 | 0.367 | 0.376 | 0.326 | 0.363 | 0.387 | 0.38 | 0.314 | 0.371 | 0.328 | 0.344 |
| NCI-H1299 |  |  |  |  |  | 0.818 | 0.793 | 0.878 | 0.874 | 0.75 | 0.983 | 0.944 | 0.976 | 0.983 | 0.975 | 1.01 | 1.02 | 0.961 | 1 | 0.93 |
| NCI-H1734 | 0.586 | 0.57 | 0.656 | 0.623 | 0.644 | 0.461 | 0.487 | 0.486 | 0.48 | 0.45 | 0.593 | 0.571 | 0.62 | 0.585 | 0.747 | 0.634 | 0.754 | 0.649 | 0.603 | 0.642 |
| NCI-H1793 | 0.348 | 0.198 | 0.349 | 0.289 | 0.312 | 0.414 | 0.38 | 0.454 | 0.395 | 0.361 | 1 | 0.715 | 0.874 | 0.793 | 1.05 | 0.852 | 1.16 | 0.987 | 0.961 | 0.842 |
